Results: PubChem BioAssay (NCI)
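These data come from cells grown in 96-well plates and exposed to compound for 48 hours at five concentrations. GI50 marks 50% less growth. TGI denotes the concentration required for complete inhibition of growth.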

Legend:
Assay in all cases: NCI-60 cell line screen, 48 h
HCC-2998 colon = test system: HCC-2998 colon
SF-539 CNS = test system: SF-539 CNS
UACC-257 melanoma = test system: UACC-257 melanoma
HOP-62 NSCLC = test system: HOP-62 NSCLC
U251 CNS = test system: U251 CNS
KM12 colon = test system: KM12 colon
M14 melanoma = test system: M14 melanoma
A549 NSCLC = test system: A549 NSCLC
MDA-MB-435 = test system: MDA-MB-435
OVCAR-8 ovarian = test system: OVCAR-8 ovarian
K-562 leukemia = test system: K-562 leukemia
UO-31 renal = test system: UO-31 renal
SK-MEL-2 melanoma = test system: SK-MEL-2 melanoma
IGROV1 ovarian = test system: IGROV1 ovarian
HS 578T breast = test system: HS 578T breast
SW-620 colon = test system: SW-620 colon
CAKI-1 renal = test system: CAKI-1 renal
SR leukemia = test system: SR leukemia
DU-145 prostate = test system: DU-145 prostate
EKVX NSCLC = test system: EKVX NSCLC
HOP-92 NSCLC = test system: HOP-92 NSCLC
A498 renal = test system: A498 renal
NCI-H226 lung = test system: NCI-H226 lung
TK-10 renal = test system: TK-10 renal
SK-MEL-28 melanoma = test system: SK-MEL-28 melanoma
T-47D breast = test system: T-47D breast
MOLT-4 leukemia = test system: MOLT-4 leukemia
786-0 renal = test system: 786-0 renal
PC-3 prostate = test system: PC-3 prostate
MDA-MB-231 breast = test system: MDA-MB-231 breast
HCT-116 colon = test system: HCT-116 colon
HL-60(TB) leukemia = test system: HL-60(TB) leukemia
SK-MEL-5 melanoma = test system: SK-MEL-5 melanoma
HCT-15 colon = test system: HCT-15 colon
RPMI-8226 leukemia = test system: RPMI-8226 leukemia
NCI-H460 lung = test system: NCI-H460 lung
RXF 393 renal = test system: RXF 393 renal
SNB-75 CNS = test system: SNB-75 CNS
SNB-19 CNS = test system: SNB-19 CNS
CCRF-CEM leukemia = test system: CCRF-CEM leukemia
SK-OV-3 ovarian = test system: SK-OV-3 ovarian
ACHN renal = test system: ACHN renal
SN12C renal = test system: SN12C renal
NCI/ADR-RES ovarian = test system: NCI/ADR-RES ovarian
NCI-H23 lung = test system: NCI-H23 lung
HT29 colon = test system: HT29 colon
LOX IMVI melanoma = test system: LOX IMVI melanoma
OVCAR-5 ovarian = test system: OVCAR-5 ovarian
SF-268 CNS = test system: SF-268 CNS
MCF7 breast = test system: MCF7 breast
OVCAR-3 ovarian = test system: OVCAR-3 ovarian
NCI-H522 lung = test system: NCI-H522 lung
MALME-3M melanoma = test system: MALME-3M melanoma
OVCAR-4 ovarian = test system: OVCAR-4 ovarian
COLO 205 colon = test system: COLO 205 colon
SF-295 CNS = test system: SF-295 CNS
BT-549 breast = test system: BT-549 breast
UACC-62 melanoma = test system: UACC-62 melanoma

SMILES: COc1ccc2c(c1)nc(NNC(=O)c1cnccn1)c1cccn12
- GI50 (HCC-2998 colon): 1050 nM
- TGI (HCC-2998 colon): 2430 nM
- GI50 (SF-539 CNS): 393 nM
- TGI (SF-539 CNS): 2600 nM
- GI50 (UACC-257 melanoma): 756 nM
- TGI (UACC-257 melanoma): 4420 nM
- GI50 (HOP-62 NSCLC): 96.1 nM
- TGI (HOP-62 NSCLC): 3330 nM
- GI50 (U251 CNS): 132 nM
- TGI (U251 CNS): 2860 nM
- GI50 (KM12 colon): 245 nM
- TGI (KM12 colon): 9640 nM
- GI50 (M14 melanoma): 275 nM
- TGI (M14 melanoma): 3780 nM
- GI50 (A549 NSCLC): 298 nM
- TGI (A549 NSCLC): 3450 nM
- GI50 (MDA-MB-435): 338 nM
- TGI (MDA-MB-435): 2590 nM
- GI50 (OVCAR-8 ovarian): 229 nM
- TGI (OVCAR-8 ovarian): 3050 nM
- GI50 (K-562 leukemia): 393 nM
- TGI (K-562 leukemia): > 100000 nM
- GI50 (UO-31 renal): 84.8 nM
- TGI (UO-31 renal): 1510 nM
- GI50 (SK-MEL-2 melanoma): 697 nM
- TGI (SK-MEL-2 melanoma): 3880 nM
- GI50 (IGROV1 ovarian): 107 nM
- TGI (IGROV1 ovarian): 2220 nM
- GI50 (HS 578T breast): 1660 nM
- TGI (HS 578T breast): 11100 nM
- GI50 (SW-620 colon): 403 nM
- TGI (SW-620 colon): 9430 nM
- GI50 (CAKI-1 renal): 659 nM
- TGI (CAKI-1 renal): 4810 nM
- GI50 (SR leukemia): 240 nM
- TGI (SR leukemia): > 41300 nM
- GI50 (DU-145 prostate): 156 nM
- TGI (DU-145 prostate): 6300 nM
- GI50 (EKVX NSCLC): 161 nM
- TGI (EKVX NSCLC): 3700 nM
- GI50 (HOP-92 NSCLC): 952 nM
- TGI (HOP-92 NSCLC): 3220 nM
- GI50 (A498 renal): 1310 nM
- TGI (A498 renal): 2930 nM
- GI50 (NCI-H226 lung): 321 nM
- TGI (NCI-H226 lung): 2720 nM
- GI50 (TK-10 renal): 157 nM
- TGI (TK-10 renal): 3180 nM
- GI50 (SK-MEL-28 melanoma): 444 nM
- TGI (SK-MEL-28 melanoma): 3520 nM
- GI50 (T-47D breast): 348 nM
- TGI (T-47D breast): 3990 nM
- GI50 (MOLT-4 leukemia): 159 nM
- TGI (MOLT-4 leukemia): > 85500 nM
- GI50 (786-0 renal): 432 nM
- TGI (786-0 renal): 2180 nM
- GI50 (PC-3 prostate): 285 nM
- TGI (PC-3 prostate): 4850 nM
- GI50 (MDA-MB-231 breast): 682 nM
- TGI (MDA-MB-231 breast): 3390 nM
- GI50 (HCT-116 colon): 143 nM
- TGI (HCT-116 colon): 2710 nM
- GI50 (HL-60(TB) leukemia): 257 nM
- GI50 (SK-MEL-5 melanoma): 270 nM
- TGI (SK-MEL-5 melanoma): 1220 nM
- GI50 (HCT-15 colon): 63.1 nM
- TGI (HCT-15 colon): 43000 nM
- GI50 (RPMI-8226 leukemia): 435 nM
- TGI (RPMI-8226 leukemia): 4510 nM
- GI50 (NCI-H460 lung): 125 nM
- TGI (NCI-H460 lung): 4020 nM
- GI50 (RXF 393 renal): 689 nM
- TGI (RXF 393 renal): 2470 nM
- GI50 (SNB-75 CNS): 458 nM
- TGI (SNB-75 CNS): 3060 nM
- GI50 (SNB-19 CNS): 381 nM
- TGI (SNB-19 CNS): 10300 nM
- GI50 (CCRF-CEM leukemia): 67.8 nM
- TGI (CCRF-CEM leukemia): > 44100 nM
- GI50 (SK-OV-3 ovarian): 281 nM
- TGI (SK-OV-3 ovarian): 3000 nM
- GI50 (ACHN renal): 90.6 nM
- TGI (ACHN renal): 1400 nM
- GI50 (SN12C renal): 408 nM
- TGI (SN12C renal): 3370 nM
- GI50 (NCI/ADR-RES ovarian): 250 nM
- TGI (NCI/ADR-RES ovarian): 3260 nM
- GI50 (NCI-H23 lung): 640 nM
- TGI (NCI-H23 lung): 5240 nM
- GI50 (HT29 colon): 354 nM
- GI50 (LOX IMVI melanoma): 83.7 nM
- TGI (LOX IMVI melanoma): 1570 nM
- GI50 (OVCAR-5 ovarian): 962 nM
- TGI (OVCAR-5 ovarian): 5110 nM
- GI50 (SF-268 CNS): 138 nM
- TGI (SF-268 CNS): 6670 nM
- GI50 (MCF7 breast): 266 nM
- TGI (MCF7 breast): 1860 nM
- GI50 (OVCAR-3 ovarian): 186 nM
- TGI (OVCAR-3 ovarian): 3820 nM
- GI50 (NCI-H522 lung): 393 nM
- TGI (NCI-H522 lung): 5370 nM
- GI50 (MALME-3M melanoma): 1060 nM
- TGI (MALME-3M melanoma): 2930 nM
- GI50 (OVCAR-4 ovarian): 114 nM
- TGI (OVCAR-4 ovarian): 2300 nM
- GI50 (COLO 205 colon): 264 nM
- TGI (COLO 205 colon): 3010 nM
- GI50 (SF-295 CNS): 175 nM
- TGI (SF-295 CNS): 1760 nM
- GI50 (BT-549 breast): 917 nM
- TGI (BT-549 breast): 3620 nM
- GI50 (UACC-62 melanoma): 268 nM
- TGI (UACC-62 melanoma): 2990 nM
